Laboratory results: patent publication US20080051429A1, “USE OF 4-AMINO-PIPERIDINES FOR TREATING SLEEP DISORDERS” (priority 2006, published 2008)

What was measured:
Test in all cases: R-SAT broad profiling
Type in all cases: cell-based
m4 = target: T1, m4 (Homo sapiens, UniProt P08173); details: agonist; read-out: pEC50 or pIC50 (converted)
T1 construct: expressed in transfected cells; host or cells: NIH3T3
T1 sequence (P08173 1-479): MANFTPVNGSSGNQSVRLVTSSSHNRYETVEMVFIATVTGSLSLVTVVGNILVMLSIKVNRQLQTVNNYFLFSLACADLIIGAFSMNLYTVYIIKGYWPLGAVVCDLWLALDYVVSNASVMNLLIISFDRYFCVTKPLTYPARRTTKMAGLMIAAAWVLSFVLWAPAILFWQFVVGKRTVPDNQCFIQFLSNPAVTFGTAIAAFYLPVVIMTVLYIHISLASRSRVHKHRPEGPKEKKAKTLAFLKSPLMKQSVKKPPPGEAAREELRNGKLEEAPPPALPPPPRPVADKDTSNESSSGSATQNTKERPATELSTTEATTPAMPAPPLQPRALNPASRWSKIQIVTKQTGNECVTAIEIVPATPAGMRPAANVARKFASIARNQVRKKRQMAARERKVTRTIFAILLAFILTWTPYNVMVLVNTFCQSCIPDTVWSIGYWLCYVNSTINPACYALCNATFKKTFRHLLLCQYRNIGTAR
Procedure: (§1) The functional receptor assay, Receptor Selection and Amplification Technology (R-SAT), was used (with minor modifications from that previously described U.S. Pat. No. 5,707,798) to screen compounds for efficacy at the 5-HT2A receptor. Briefly, NIH3T3 cells were grown in 96 well tissue culture plates to 70-80% confluence. Cells were transfected for 12-16 hours with plasmid DNAs using superfect (Qiagen Inc.) as per manufacture's protocols. R-SAT's were generally performed with 50 ng/well of receptor and 20 ng/well of Beta-galactosidase plasmid DNA. All receptor and G-protein constructs used were in the pSI mammalian expression vector (Promega Inc) as described in U.S. Pat. No. 5,707,798. The 5HT2A receptor gene was amplified by nested PCR from brain cDNA using the oligodeoxynucleotides based on the published sequence (see Saltzman et. al. Biochem. Biophys. Res. Comm. 181:1469-78 (1991)). Large-scale transfections, cells were transfected for 12-16 hours, then trypsinized and frozen in DMSO. Frozen cells were later thawed, plated at 10,000-40,000 cells per well of a 96 well plate that contained drug. With both methods, cells were then grown in a humidified atmosphere with 5% ambient CO2 for five days. Media was then removed from the plates and marker gene activity was measured by the addition of the beta-galactosidase substrate ONPG (in PBS with 5% NP-40). The resulting colorimetric reaction was measured in a spectrophotometric plate reader (Titertek Inc.)at […]. All data were analyzed using the computer program XLFit (IDBSm). Efficacy is the percent maximal repression compared to repression by a control compound (ritanserin in the case of 5HT2A). pIC50 is the negative of the log(IC50), where IC50 is the calculated concentration in Molar that produces 50% maximal repression.
(§2) The R-SAT assay (described above in example 289) was used to investigate the selectivity of 4-(4-Fluoro-benzyl)-3-(4-isobutoxy-benzyl)-8-methyl-1-oxa-3,8-diaza-spiro[4.5]decan-2-one.

5HT7A = target: T2, 5HT7A (Homo sapiens, UniProt P34969); details: read-out: pEC50 or pIC50 (converted)
T2 construct: expressed in transfected cells; host or cells: NIH3T3
Procedure: as §1, §2

alpha 1B = target: T3, alpha 1B (Mesocricetus auratus, UniProt P18841); details: read-out: pEC50 or pIC50 (converted)
T3 construct: expressed in transfected cells; host or cells: NIH3T3
Procedure: as §1, §2

alpha 2A = target: T4, alpha 2A (Homo sapiens, UniProt P08913); details: agonist; read-out: pEC50 or pIC50 (converted)
T4 construct: expressed in transfected cells; host or cells: NIH3T3
T4 sequence (P08913 1-465): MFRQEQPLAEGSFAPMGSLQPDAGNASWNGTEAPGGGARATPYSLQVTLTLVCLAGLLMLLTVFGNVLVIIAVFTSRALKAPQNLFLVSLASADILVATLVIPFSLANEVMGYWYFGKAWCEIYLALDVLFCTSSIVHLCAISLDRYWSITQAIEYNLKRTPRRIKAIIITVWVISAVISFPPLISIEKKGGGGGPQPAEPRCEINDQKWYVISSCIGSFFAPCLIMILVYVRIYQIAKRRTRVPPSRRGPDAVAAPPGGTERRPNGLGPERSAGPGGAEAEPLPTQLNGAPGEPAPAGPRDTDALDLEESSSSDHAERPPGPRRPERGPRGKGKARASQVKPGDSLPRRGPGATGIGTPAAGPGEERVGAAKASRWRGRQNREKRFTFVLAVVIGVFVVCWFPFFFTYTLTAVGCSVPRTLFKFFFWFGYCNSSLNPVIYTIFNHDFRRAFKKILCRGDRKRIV
Procedure: as §1, §2

D3 = target: T5, D3 (Homo sapiens, UniProt P35462); details: read-out: pEC50 or pIC50 (converted)
T5 construct: expressed in transfected cells; host or cells: NIH3T3
Procedure: as §1, §2

T2 sequence (P34969 1-445 isoform P34969-2): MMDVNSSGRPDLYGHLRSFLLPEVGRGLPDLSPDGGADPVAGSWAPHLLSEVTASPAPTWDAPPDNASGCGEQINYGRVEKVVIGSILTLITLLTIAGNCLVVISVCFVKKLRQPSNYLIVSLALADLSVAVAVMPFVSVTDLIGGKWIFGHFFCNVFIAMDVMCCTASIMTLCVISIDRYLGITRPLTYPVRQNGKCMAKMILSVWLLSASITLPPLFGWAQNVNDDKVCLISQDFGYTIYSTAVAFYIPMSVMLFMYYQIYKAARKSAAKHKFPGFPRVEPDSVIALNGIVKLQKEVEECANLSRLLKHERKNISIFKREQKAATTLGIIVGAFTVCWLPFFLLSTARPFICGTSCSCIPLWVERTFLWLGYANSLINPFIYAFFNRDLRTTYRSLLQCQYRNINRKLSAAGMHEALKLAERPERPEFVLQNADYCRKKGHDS
T5 sequence (P35462 whole entry): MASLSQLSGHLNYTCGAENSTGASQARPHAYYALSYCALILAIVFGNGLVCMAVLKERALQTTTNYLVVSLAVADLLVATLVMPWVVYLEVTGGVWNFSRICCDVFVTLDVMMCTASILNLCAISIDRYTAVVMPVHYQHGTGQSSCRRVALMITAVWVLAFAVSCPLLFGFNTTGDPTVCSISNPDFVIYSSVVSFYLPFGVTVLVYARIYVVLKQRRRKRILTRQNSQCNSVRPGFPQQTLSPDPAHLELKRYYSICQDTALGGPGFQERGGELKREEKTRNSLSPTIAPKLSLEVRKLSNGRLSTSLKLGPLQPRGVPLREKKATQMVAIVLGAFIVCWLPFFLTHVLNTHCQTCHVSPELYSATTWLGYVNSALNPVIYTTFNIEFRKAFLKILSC
T3 sequence (P18841 whole entry): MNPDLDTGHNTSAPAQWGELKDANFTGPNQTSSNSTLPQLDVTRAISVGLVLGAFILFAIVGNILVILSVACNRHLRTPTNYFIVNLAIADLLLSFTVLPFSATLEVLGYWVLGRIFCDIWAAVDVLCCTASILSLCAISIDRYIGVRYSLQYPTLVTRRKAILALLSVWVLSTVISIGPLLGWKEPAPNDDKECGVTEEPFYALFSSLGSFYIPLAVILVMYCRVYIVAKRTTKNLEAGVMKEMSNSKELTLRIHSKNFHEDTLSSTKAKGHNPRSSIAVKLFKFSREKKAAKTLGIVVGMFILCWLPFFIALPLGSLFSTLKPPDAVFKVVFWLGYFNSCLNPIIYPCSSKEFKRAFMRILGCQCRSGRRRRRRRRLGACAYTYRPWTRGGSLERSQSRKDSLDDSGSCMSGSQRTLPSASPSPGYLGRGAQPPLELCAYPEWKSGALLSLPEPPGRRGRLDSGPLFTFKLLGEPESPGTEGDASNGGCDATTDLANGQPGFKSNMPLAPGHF

CC(C)COc1ccc(CN2C(=O)OC3(CCN(C)CC3)C2Cc2ccc(F)cc2)cc1.Cl (racemic) [Example 69NLS75, 4-(4-Fluorobenzyl)-3-(4-isobutoxybenzyl)-8-methyl-1-oxa-3,8-diazaspiro[4.5]decan-2-one, hydrochloride]
> 3.16 µM: EC50 (m4) | EC50 (5HT7A; agonist) | IC50 (5HT7A; inverse) | EC50 (alpha 1B; agonist) | IC50 (alpha 1B; antagonist) | EC50 (alpha 2A) | EC50 (D3; agonist) | IC50 (D3; antagonist)
